Measured values as given in US20090082425A1 (priority 2007, published 2009).

Tested on: DU-145
Type: cell-based, human

## CC(=O)O[C@H]1C(=O)[C@@]2(C)[C@H]([C@H](OC(=O)c3ccccc3)[C@]3(O)C[C@H](OC(=O)[C@H](O)[C@@H](NC(=O)c4ccccc4)c4ccccc4)C(C)=C1C3(C)C)[C@]1(OC(C)=O)CO[C@@H]1C[C@@H]2O [Taxol]
  Cell survival rate (%): 63.88%
